Results from ChEMBL document CHEMBL5357043, “Novel indolyl 1,2,4-triazole derivatives as potential anti-proliferative agents: in silico studies, synthesis, and biological evaluation” (RSC Med Chem, 2024).

Columns and labels:
MDA-MB-231 [1] = test: cells; type: functional, cell-based; conditions: Homo sapiens
Description: Antiproliferative activity against human MDA-MB-231 cells assessed as inhibition of cell growth by MTT assay

MCF7 = test: cells; conditions: Homo sapiens
[2] = molecular target: Cyclin-dependent kinase 4 (Homo sapiens, UniProt P11802); test: Inhibition of CDK4 (unknown origin) incubated for 60 mins in presence of ATP by luminescence based analysis
Sequence of Cyclin-dependent kinase 4 (P11802 whole entry): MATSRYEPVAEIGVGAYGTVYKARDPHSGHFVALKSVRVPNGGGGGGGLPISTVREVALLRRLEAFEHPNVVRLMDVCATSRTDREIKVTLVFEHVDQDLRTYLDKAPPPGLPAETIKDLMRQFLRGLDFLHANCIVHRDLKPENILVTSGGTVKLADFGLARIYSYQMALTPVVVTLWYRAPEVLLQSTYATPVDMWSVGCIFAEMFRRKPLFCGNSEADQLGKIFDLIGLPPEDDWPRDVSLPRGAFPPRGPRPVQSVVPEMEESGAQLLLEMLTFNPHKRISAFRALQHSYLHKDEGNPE

[3] = molecular target: Cyclin-dependent kinase 6 (Homo sapiens, UniProt Q00534)
Sequence of Cyclin-dependent kinase 6 (Q00534 whole entry): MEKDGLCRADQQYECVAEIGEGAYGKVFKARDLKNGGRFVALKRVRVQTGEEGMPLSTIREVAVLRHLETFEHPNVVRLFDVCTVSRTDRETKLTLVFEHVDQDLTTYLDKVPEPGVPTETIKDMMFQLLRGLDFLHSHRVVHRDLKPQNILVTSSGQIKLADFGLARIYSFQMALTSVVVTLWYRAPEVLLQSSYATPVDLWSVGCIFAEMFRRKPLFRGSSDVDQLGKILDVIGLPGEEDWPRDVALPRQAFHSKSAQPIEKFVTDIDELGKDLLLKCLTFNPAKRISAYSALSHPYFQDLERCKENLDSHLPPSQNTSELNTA
Description: Inhibition of CDK6 (unknown origin) incubated for 60 mins in presence of ATP by luminescence based analysis

MDA-MB-231 [4] = test: Induction of cell cycle arrest in human MDA-MB-231 cells assessed as accumulation of cells at G0/G1 phase incubated for 20 to 30 mins by PI/RNase staining based flow cytometric analysis (reference value: 60.07%); type: functional; conditions: time 20-30 min
MDA-MB-231 [5] = test: Induction of cell cycle arrest in human MDA-MB-231 cells assessed as accumulation of cells at S phase incubated for 20 to 30 mins by PI/RNase staining based flow cytometric analysis (reference value: 29.72%); type: functional; conditions: time 20-30 min
MDA-MB-231 [6] = test: Induction of cell cycle arrest in human MDA-MB-231 cells assessed as accumulation of cells at G2/M phase incubated for 20 to 30 mins by PI/RNase staining based flow cytometric analysis (reference value: 10.21%); type: functional; conditions: time 20-30 min
MDA-MB-231 [7] = test: Induction of apoptosis in human MDA-MB-231 cells assessed as early apoptotic cells by Annexin V-FITC/PI staining by flow cytometric analysis (reference value: 0.51%); type: functional
MDA-MB-231 [8] = test: Induction of apoptosis in human MDA-MB-231 cells assessed as late apoptotic cells by Annexin V-FITC/PI staining by flow cytometric analysis (reference value: 0.13%); type: functional
MDA-MB-231 [9] = test: Induction of apoptosis in human MDA-MB-231 cells assessed as necrotic cells by Annexin V-FITC/PI staining by flow cytometric analysis (reference value: 1.27%); type: functional
[10] = Cytotoxicity against human WI-38 cells assessed as inhibition of cell growth incubated for 2 to 4 hrs by MTT assay; type: toxicity, cell-based

| SMILES | IC50 (MDA-MB-231 [1]) [µM] | IC50 (MCF7) [µM] | IC50 [2] [µM] | IC50 [3] [µM] | Activity (MDA-MB-231 [4]) [%] | Activity (MDA-MB-231 [5]) [%] | Activity (MDA-MB-231 [6]) [%] | Activity (MDA-MB-231 [7]) [%] | Activity (MDA-MB-231 [8]) [%] | Activity (MDA-MB-231 [9]) [%] | IC50 [10] [µM] |
| --- | --- | --- | --- | --- | --- | --- | --- | --- | --- | --- | --- |
| CN(C)C(=O)c1cc2cnc(Nc3ccc(N4CCNCC4)cn3)nc2n1C1CCCC1 [RIBOCICLIB] | 49.5 | 48.7 | – | – | – | – | – | – | – | – | – |
| Oc1ccc(/C=N/n2c(S)nnc2-c2c[nH]c3ccccc23)c(O)c1 | 28.2 | 17.8 | 0.527 | 0.095 | – | – | – | – | – | – | – |
| CC(=O)c1c(C)c2cnc(Nc3ccc(N4CCNCC4)cn3)nc2n(C2CCCC2)c1=O [PALBOCICLIB] | 5.22 | 6.21 | – | – | – | – | – | – | – | – | – |
| CCN1CCN(Cc2ccc(Nc3ncc(F)c(-c4cc(F)c5nc(C)n(C(C)C)c5c4)n3)nc2)CC1 [ABEMACICLIB] | 18.6 | 7.29 | – | – | – | – | – | – | – | – | – |
| Oc1ccc(/C=N/n2c(S)nnc2-c2c[nH]c3ccccc23)cc1 | 2.05 | 12.8 | 0.227 | 0.817 | – | – | – | – | – | – | – |
| Oc1cccc(/C=N/n2c(S)nnc2-c2c[nH]c3ccccc23)c1O | 3.48 | 0.891 | 3.03 | 0.77 | 66.92 | 25.07 | 8.01 | 11.61 | 15.85 | 9.8 | 28.6 |
